PMC10411619 (Chemical Science, 2023)

Biological target: cyt P460 (Nitrosomonas europaea, UniProt Q50927)
Assay: biochemical

cyt P460, sequence (Q50927 27-198): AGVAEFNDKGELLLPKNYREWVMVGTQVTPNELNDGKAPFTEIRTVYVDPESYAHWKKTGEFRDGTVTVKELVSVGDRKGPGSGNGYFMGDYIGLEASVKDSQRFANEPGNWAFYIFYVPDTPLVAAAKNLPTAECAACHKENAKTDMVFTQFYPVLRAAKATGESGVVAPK

Kd: 30 ± 0.7 mM
Structure (SMILES): NO [NH2OH]
